# Test results reported in US20260217761A1, “ANTIMICROBIAL PEPTIDE RICH IN TRYPTOPHAN AND HAVING SELF-ASSEMBLY PROPERTIES, AND USE THEREOF” (NANOQURE BIOTECH (SHENZHEN) CO., LTD., priority 2022, published 2026).
# Values joined by “and” are separate entries in the source; they are usually repeats but may differ in a detail not shown here. Identical values can stand only once. No end group written: not given here.
# Key:
# P. aeruginosa = experiment: Killing curve (bactericidal activity) against P. aeruginosa; format: cell-based, Pseudomonas aeruginosa
# Description: (§1) • A. To determine the bactericidal ability of polypeptide Z4, Pseudomonas aeruginosa and Staphylococcus aureus were suspended in PBS until OD600 nm=0.4, then diluted 1000 times with fresh PBS and mixed in equal volumes. Polypeptide Z4 was added to the bacterial suspension at concentrations of 1×MIC and 2×MIC. […] After incubation at 37° C. for 18 h, the single colonies of the microorganisms were counted. The experiment was repeated 3 times and the average value was calculated.
# S. aureus = experiment: Killing curve (bactericidal activity) against S. aureus; format: cell-based, Staphylococcus aureus
# Description: as §1
# [1] = test system: mixed biofilm of P. aeruginosa and S. aureus; experiment: Anti-biofilm activity on formed mixed biofilm (crystal violet); format: cell-based; conditions: for removal effect on the formed biofilm: 3 h
# Description: • B. To investigate the anti-biofilm activity of polypeptide Z4, P. aeruginosa and S. aureus were grown overnight at 37° C. in tryptic soy broth medium until the logarithmic phase, and then diluted to 1×10^7 CFU/mL and 1×10^6 CFU/mL respectively, and mixed in equal amounts to prepare a mixed bacterial culture. Subsequently, 100 μL of the mixed bacterial suspension was incubated at 37° C. for 24 h to obtain a mixed biofilm. Then, antimicrobial peptides with a final concentration of 2-32 μM were added to a 96-well plate. After incubation at 37° C. for 3 h, the medium was discarded, and the 96-well plate was washed three times with PBS (pH=7.2). After drying at room temperature, 200 μL/well of […] crystal violet staining solution was added to the plate. After incubation at 37° C. for 30 minutes, it was rinsed three times with PBS. After air drying at room temperature, 200 μL/well of 95% ethanol was added and incubated at 37° C. for 30 min, and the absorbance was measured at 595 nm. A total of 3 experiments were set up, and each experiment was repeated 3 times.
# various bacteria = experiment: MIC against various bacteria (broad-spectrum antimicrobial activity); format: cell-based
# Description: • A. The antimicrobial peptide was prepared into a certain stock solution for use. 0.01% acetic acid (containing 0.2% BSA) was used as the diluent, and a series of gradient antimicrobial peptide solutions were prepared sequentially by a two-fold dilution method. • B. 100 μL of the above-mentioned antimicrobial peptide stock solution was taken and placed in a 96-well cell culture plate. Then, an equal volume of the test bacterial solution (approximately 10^5 cells/mL) was added to each well. A positive control (containing the bacterial solution but no antimicrobial peptide) and a negative control (containing neither bacterial solution nor the peptide) were included, respectively. The test bacterial species include Pseudomonas aeruginosa (Pseudomonas aeruginosa PL1, Pseudomonas aeruginosa SP1), Staphylococcus aureus (Staphylococcus aureus 544, Staphylococcus aureus 103), Escherichia coli (Escherichia coli 729, Escherichia coli 112), Klebsiella Pneumoniae (Klebsiella Pneumoniae 106, Klebsiella Pneumoniae 727), Streptococcus pneumonia 383, Acinetobacter baumannii (Acinetobacter baumannii 946, Acinetobacter baumannii 780) (FIG. 1), or Pseudomonas aeruginosa (Pseudomonas aeruginosa PAO1), Staphylococcus aureus (Staphylococcus aureus SP1), and a mixed solution of the above two bacteria (FIG. 2). • C. The culture plate was placed in a constant temperature incubator at 37° C. for 20 h. The minimum inhibitory concentration is determined as the condition where no turbidity is observed at the bottom of the well with naked eyes.
# • A. The polypeptide Z4 composed entirely of dextrorotatory amino acids is called the dextrorotatory isomer of polypeptide Z4. The polypeptide Z4-D was prepared into a certain stock solution for use. […] The minimum inhibitory concentration is determined as the condition where no turbidity is observed at the bottom of the well with naked eyes.
substance,measurement,setting,value
Gentamicin,survival number of P. aeruginosa,"P. aeruginosa; 1×MIC, 0 min",140000 CFU/mL and 126000 CFU/mL and 130000 CFU/mL and 122000 CFU/mL
same,survival number of P. aeruginosa,"P. aeruginosa; 1×MIC, 15 min",116000 CFU/mL and 120000 CFU/mL and 140000 CFU/mL and 108000 CFU/mL
same,survival number of P. aeruginosa,"P. aeruginosa; 1×MIC, 30 min",104000 CFU/mL and 126000 CFU/mL and 110000 CFU/mL
same,survival number of P. aeruginosa,"P. aeruginosa; 1×MIC, 60 min",112000 CFU/mL and 92000 CFU/mL and 106000 CFU/mL and 110000 CFU/mL
same,survival number of P. aeruginosa,"P. aeruginosa; 1×MIC, 120 min",30000 CFU/mL and 52000 CFU/mL and 54000 CFU/mL
same,survival number of P. aeruginosa,"P. aeruginosa; 1×MIC, 300 min",0 CFU/mL
same,survival number of P. aeruginosa,"P. aeruginosa; 2×MIC, 0 min",142000 CFU/mL and 134000 CFU/mL and 122000 CFU/mL and 106000 CFU/mL
same,survival number of P. aeruginosa,"P. aeruginosa; 2×MIC, 15 min",166000 CFU/mL and 104000 CFU/mL and 136000 CFU/mL and 128000 CFU/mL
same,survival number of P. aeruginosa,"P. aeruginosa; 2×MIC, 30 min",116000 CFU/mL and 154000 CFU/mL and 126000 CFU/mL and 130000 CFU/mL
same,survival number of P. aeruginosa,"P. aeruginosa; 2×MIC, 60 min",92000 CFU/mL and 82000 CFU/mL and 70000 CFU/mL and 68000 CFU/mL
same,survival number of P. aeruginosa,"P. aeruginosa; 2×MIC, 240 min",0 CFU/mL
same,survival number of S. aureus,"S. aureus; 1×MIC, 30 min",2000 CFU/mL and 4000 CFU/mL
same,survival number of S. aureus,"S. aureus; 1×MIC, 180 min",2000 CFU/mL and 4000 CFU/mL
same,survival number of S. aureus,"S. aureus; 1×MIC, 360 min",0 CFU/mL
same,survival number of S. aureus,"S. aureus; 2×MIC, 300 min",0 CFU/mL
same,survival number of S. aureus,"S. aureus; 2×MIC, 360 min",0 CFU/mL
same,removal effect on the formed biofilm,[1]; concentration 2 μM,90.78% and 99.18% and 100%
same,removal effect on the formed biofilm,[1]; concentration 4 μM,67.84% and 74.15% and 105.2663%
same,removal effect on the formed biofilm,[1]; concentration 8 μM,86.98% and 97.37% and 78.85%
same,removal effect on the formed biofilm,[1]; concentration 16 μM,64.53% and 107.33% and 74.22%
same,concentration at which more than 50% of the biofilm is removed,[1]; mixed biofilm,32 µM
"KWKWWWKWK-NH2 [Z1, centrally symmetric 9-peptide of tryptophan and lysine]",broad-spectrum antimicrobial activity,various bacteria,good broad-spectrum antimicrobial activity
